{"source": "ChEMBL document CHEMBL4630902", "about": "(2021)", "key": {"[1]": {"target": "5-hydroxytryptamine receptor 1A (Homo sapiens) (UniProt P08908)", "conditions": "Compound concentration 10.0 uM"}, "[2]": {"target": "5-hydroxytryptamine receptor 1B (Homo sapiens) (UniProt P28222)", "conditions": "Compound concentration 10.0 uM"}, "[3]": {"target": "5-hydroxytryptamine receptor 1D (Homo sapiens) (UniProt P28221)", "conditions": "Compound concentration 10.0 uM"}, "[4]": {"target": "5-hydroxytryptamine receptor 1E (Homo sapiens) (UniProt P28566)", "conditions": "Compound concentration 10.0 uM"}, "[5]": {"target": "5-hydroxytryptamine receptor 2A (Homo sapiens) (UniProt P28223)", "sequence (P28223 whole entry)": "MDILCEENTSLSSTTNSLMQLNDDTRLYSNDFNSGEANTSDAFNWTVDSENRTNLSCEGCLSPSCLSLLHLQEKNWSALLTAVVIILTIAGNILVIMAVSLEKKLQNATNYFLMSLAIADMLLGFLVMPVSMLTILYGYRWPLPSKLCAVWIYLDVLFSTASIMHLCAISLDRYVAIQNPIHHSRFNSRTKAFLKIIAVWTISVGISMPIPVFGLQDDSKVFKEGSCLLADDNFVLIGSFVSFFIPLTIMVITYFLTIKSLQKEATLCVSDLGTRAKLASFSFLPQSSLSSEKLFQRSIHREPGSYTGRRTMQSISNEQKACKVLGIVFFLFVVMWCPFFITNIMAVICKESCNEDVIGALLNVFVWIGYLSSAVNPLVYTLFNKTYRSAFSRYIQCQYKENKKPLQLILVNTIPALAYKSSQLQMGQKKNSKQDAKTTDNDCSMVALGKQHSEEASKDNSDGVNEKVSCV", "conditions": "Compound concentration 10.0 uM"}, "[6]": {"target": "5-hydroxytryptamine receptor 3A (Homo sapiens) (UniProt P46098)", "sequence (P46098 whole entry)": "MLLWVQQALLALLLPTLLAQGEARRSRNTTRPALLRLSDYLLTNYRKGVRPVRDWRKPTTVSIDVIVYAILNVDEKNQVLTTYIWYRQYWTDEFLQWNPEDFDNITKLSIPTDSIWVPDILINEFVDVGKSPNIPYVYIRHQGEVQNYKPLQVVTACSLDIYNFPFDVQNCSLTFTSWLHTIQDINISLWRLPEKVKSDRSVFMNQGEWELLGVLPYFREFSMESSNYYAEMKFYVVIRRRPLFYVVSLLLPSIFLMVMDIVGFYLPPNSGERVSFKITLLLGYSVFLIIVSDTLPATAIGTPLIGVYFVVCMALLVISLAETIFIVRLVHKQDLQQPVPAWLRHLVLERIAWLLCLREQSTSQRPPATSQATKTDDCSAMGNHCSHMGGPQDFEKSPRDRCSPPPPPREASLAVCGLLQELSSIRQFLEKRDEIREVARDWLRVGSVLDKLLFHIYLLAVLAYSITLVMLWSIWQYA", "conditions": "Compound concentration 10.0 uM"}, "[7]": {"target": "5-hydroxytryptamine receptor 6 (Homo sapiens) (UniProt P50406)", "conditions": "Compound concentration 10.0 uM"}, "[8]": {"target": "5-hydroxytryptamine receptor 7 (Homo sapiens) (UniProt P34969)", "conditions": "Compound concentration 10.0 uM"}, "[9]": {"target": "D(1A) dopamine receptor (Homo sapiens) (UniProt P21728)", "sequence (P21728 whole entry)": "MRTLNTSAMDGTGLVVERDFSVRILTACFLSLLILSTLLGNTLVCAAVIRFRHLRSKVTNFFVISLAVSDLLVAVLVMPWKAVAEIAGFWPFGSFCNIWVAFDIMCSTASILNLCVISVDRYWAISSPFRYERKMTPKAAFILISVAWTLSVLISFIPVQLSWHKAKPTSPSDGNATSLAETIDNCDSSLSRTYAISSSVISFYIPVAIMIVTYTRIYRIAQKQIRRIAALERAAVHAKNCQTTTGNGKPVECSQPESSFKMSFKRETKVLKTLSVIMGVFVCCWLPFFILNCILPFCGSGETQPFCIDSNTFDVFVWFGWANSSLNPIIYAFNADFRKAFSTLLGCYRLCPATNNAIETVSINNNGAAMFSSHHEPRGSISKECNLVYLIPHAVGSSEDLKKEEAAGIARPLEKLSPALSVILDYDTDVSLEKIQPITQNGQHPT", "conditions": "Compound concentration 10.0 uM"}, "[10]": {"target": "D(3) dopamine receptor (Homo sapiens) (UniProt P35462)", "conditions": "Compound concentration 10.0 uM"}, "[11]": {"target": "D(4) dopamine receptor (Homo sapiens) (UniProt P21917)", "conditions": "Compound concentration 10.0 uM"}, "[12]": {"target": "D(1B) dopamine receptor (Homo sapiens) (UniProt P21918)", "conditions": "Compound concentration 10.0 uM"}, "[13]": {"target": "Mu-type opioid receptor (Homo sapiens) (UniProt P35372)", "conditions": "Compound concentration 10.0 uM"}, "[14]": {"target": "Delta-type opioid receptor (Homo sapiens) (UniProt P41143)", "sequence (P41143 whole entry)": "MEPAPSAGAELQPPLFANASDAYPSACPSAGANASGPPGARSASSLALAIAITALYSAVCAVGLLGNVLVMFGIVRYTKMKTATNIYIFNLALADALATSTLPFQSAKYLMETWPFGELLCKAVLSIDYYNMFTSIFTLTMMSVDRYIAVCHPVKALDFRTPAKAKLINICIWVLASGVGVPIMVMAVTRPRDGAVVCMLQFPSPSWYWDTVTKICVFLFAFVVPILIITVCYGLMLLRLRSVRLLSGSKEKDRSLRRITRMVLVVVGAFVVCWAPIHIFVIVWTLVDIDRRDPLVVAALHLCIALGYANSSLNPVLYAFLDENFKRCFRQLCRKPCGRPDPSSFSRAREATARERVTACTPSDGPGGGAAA", "conditions": "Compound concentration 10.0 uM"}, "[15]": {"target": "Kappa-type opioid receptor (Homo sapiens) (UniProt P41145)", "sequence (P41145 whole entry)": "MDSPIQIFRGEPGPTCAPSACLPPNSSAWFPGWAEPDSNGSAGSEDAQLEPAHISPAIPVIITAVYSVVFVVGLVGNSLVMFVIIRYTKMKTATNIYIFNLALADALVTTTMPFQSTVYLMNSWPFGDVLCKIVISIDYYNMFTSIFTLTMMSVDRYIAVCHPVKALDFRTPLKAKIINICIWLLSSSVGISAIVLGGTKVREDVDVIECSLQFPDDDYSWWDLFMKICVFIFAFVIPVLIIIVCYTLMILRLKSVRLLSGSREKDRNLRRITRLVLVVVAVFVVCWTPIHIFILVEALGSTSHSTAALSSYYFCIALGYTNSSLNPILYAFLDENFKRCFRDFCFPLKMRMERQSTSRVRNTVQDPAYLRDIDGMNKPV", "conditions": "Compound concentration 10.0 uM"}, "[16]": {"target": "T1, GABA-A receptor; anion channel (Rattus norvegicus) (UniProt O09028+P15431+P18506+P18508+P19969+P20236+P23574+P23576+P28471+P28473+P30191+P62813+P63079+P63138+Q91ZM7+Q9ES14)", "conditions": "Compound concentration 10.0 uM"}, "[17]": {"target": "Histamine H1 receptor (Homo sapiens) (UniProt P35367)", "conditions": "Compound concentration 10.0 uM"}, "[18]": {"target": "Histamine H2 receptor (Homo sapiens) (UniProt P25021)", "sequence (P25021 whole entry)": "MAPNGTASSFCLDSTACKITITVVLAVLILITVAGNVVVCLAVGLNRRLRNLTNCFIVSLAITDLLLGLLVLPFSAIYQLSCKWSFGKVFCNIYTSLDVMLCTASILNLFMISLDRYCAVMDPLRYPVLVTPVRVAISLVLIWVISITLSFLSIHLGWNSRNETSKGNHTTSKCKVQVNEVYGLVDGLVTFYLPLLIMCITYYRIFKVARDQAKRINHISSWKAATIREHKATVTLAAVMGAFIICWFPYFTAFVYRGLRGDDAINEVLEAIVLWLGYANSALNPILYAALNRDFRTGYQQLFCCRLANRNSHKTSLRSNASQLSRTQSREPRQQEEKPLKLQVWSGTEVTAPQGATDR", "conditions": "Compound concentration 10.0 uM"}, "[19]": {"target": "Histamine H3 receptor (Homo sapiens) (UniProt Q9Y5N1)", "conditions": "Compound concentration 10.0 uM"}, "[20]": {"target": "Alpha-1A adrenergic receptor (Homo sapiens) (UniProt P35348)", "sequence (P35348 whole entry)": "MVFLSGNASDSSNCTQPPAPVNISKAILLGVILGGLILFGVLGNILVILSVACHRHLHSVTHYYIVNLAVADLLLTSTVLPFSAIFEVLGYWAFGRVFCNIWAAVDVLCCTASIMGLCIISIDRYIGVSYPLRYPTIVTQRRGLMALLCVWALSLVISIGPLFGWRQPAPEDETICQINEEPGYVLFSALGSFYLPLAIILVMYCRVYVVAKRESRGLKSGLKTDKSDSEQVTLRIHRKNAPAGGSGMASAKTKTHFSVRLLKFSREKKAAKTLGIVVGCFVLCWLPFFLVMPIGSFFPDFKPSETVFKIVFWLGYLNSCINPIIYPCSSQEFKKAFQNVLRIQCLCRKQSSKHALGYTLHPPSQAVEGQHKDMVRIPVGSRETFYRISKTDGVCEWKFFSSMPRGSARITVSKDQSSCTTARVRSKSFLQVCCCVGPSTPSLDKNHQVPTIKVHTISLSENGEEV", "conditions": "Compound concentration 10.0 uM"}, "[21]": {"target": "Alpha-1B adrenergic receptor (Homo sapiens) (UniProt P35368)", "sequence (P35368 whole entry)": "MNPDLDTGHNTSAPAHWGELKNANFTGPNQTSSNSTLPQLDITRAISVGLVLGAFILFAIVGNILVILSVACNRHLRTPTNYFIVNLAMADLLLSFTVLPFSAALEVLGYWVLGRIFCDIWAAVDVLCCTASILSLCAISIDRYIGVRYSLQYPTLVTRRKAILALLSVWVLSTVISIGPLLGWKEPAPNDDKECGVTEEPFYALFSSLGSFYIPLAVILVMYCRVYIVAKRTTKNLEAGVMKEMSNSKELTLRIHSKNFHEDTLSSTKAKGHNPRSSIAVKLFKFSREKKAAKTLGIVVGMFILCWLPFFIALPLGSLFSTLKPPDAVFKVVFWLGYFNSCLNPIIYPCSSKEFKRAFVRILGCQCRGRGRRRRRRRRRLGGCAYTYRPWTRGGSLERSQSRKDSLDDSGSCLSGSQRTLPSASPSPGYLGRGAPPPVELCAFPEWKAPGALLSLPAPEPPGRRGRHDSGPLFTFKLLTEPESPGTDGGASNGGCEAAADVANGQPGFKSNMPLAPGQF", "conditions": "Compound concentration 10.0 uM"}, "[22]": {"target": "Alpha-2A adrenergic receptor (Homo sapiens) (UniProt P08913)", "sequence (P08913 whole entry)": "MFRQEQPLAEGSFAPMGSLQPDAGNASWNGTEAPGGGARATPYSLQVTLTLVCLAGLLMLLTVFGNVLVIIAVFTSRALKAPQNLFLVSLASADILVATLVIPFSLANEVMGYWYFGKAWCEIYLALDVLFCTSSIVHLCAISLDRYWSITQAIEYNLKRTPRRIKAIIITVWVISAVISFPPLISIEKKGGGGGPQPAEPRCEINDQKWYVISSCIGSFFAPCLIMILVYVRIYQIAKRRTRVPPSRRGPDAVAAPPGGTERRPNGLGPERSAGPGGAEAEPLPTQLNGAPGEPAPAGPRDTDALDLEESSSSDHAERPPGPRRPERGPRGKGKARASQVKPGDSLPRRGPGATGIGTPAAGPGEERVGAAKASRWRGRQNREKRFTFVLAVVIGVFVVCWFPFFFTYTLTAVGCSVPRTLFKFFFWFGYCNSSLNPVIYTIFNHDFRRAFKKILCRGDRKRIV", "conditions": "Compound concentration 10.0 uM"}, "[23]": {"target": "Alpha-2B adrenergic receptor (Homo sapiens) (UniProt P18089)", "conditions": "Compound concentration 10.0 uM"}, "[24]": {"target": "Alpha-2C adrenergic receptor (Homo sapiens) (UniProt P18825)", "sequence (P18825 whole entry)": "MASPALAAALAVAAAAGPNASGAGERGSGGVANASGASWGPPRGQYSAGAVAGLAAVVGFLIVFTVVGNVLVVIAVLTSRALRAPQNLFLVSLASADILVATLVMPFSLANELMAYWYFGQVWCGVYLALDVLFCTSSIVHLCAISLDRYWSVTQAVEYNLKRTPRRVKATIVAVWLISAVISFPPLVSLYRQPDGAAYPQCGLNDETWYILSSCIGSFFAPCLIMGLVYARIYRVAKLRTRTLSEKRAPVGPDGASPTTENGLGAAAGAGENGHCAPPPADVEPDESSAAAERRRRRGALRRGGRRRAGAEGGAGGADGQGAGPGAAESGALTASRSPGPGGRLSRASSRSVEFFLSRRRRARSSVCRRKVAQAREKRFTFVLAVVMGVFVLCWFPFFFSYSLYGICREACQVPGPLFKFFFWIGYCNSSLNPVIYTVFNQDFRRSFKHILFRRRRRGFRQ", "conditions": "Compound concentration 10.0 uM"}, "[25]": {"target": "Beta-1 adrenergic receptor (Homo sapiens) (UniProt P08588)", "sequence (P08588 whole entry, looked up)": "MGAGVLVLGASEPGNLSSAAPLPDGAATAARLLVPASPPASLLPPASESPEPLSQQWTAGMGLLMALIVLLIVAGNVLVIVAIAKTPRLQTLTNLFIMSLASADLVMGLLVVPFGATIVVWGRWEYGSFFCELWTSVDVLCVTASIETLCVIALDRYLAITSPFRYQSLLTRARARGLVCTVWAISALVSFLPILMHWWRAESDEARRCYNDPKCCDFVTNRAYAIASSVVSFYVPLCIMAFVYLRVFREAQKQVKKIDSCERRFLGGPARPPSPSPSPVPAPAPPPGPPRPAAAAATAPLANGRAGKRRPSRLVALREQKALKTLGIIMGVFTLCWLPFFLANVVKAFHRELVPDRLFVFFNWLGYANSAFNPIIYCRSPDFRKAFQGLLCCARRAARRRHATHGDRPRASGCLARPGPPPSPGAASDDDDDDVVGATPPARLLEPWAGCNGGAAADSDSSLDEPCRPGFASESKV", "conditions": "Compound concentration 10.0 uM"}, "[26]": {"target": "Beta-2 adrenergic receptor (Homo sapiens) (UniProt P07550)", "conditions": "Compound concentration 10.0 uM"}, "[27]": {"target": "Muscarinic acetylcholine receptor M1 (Homo sapiens) (UniProt P11229)", "conditions": "Compound concentration 10.0 uM"}, "[28]": {"target": "Muscarinic acetylcholine receptor M2 (Homo sapiens) (UniProt P08172)", "conditions": "Compound concentration 10.0 uM"}, "[29]": {"target": "Muscarinic acetylcholine receptor M3 (Homo sapiens) (UniProt P20309)", "conditions": "Compound concentration 10.0 uM"}, "[30]": {"target": "Muscarinic acetylcholine receptor M4 (Homo sapiens) (UniProt P08173)", "conditions": "Compound concentration 10.0 uM"}, "[31]": {"target": "Muscarinic acetylcholine receptor M5 (Homo sapiens) (UniProt P08912)", "conditions": "Compound concentration 10.0 uM"}, "[32]": {"target": "Beta-3 adrenergic receptor (Homo sapiens) (UniProt P13945)", "conditions": "Compound concentration 10.0 uM"}, "[33]": {"target": "T1, GABA-A receptor; anion channel (Rattus norvegicus)", "conditions": "Compound concentration 10.0 uM", "remark": "listed apart in the source"}, "[34]": {"target": "Alpha-1D adrenergic receptor (Homo sapiens) (UniProt P25100)", "conditions": "Compound concentration 10.0 uM"}, "[35]": {"target": "Sigma intracellular receptor 2 (Homo sapiens) (UniProt Q5BJF2)", "conditions": "Compound concentration 10.0 uM"}, "[36]": {"target": "Sigma non-opioid intracellular receptor 1 (Homo sapiens) (UniProt Q99720)", "conditions": "Compound concentration 10.0 uM"}, "[37]": {"experiment": "BET mutant TR-FRET assay (BRDT BD2)", "parameters": "species or system Homo sapiens"}, "[38]": {"target": "5-hydroxytryptamine receptor 2B (Homo sapiens) (UniProt P41595)", "conditions": "Compound concentration 10.0 uM"}, "[39]": {"target": "5-hydroxytryptamine receptor 2C (Homo sapiens) (UniProt P28335)", "conditions": "Compound concentration 10.0 uM"}, "[40]": {"target": "5-hydroxytryptamine receptor 5A (Homo sapiens) (UniProt P47898)", "conditions": "Compound concentration 10.0 uM"}, "[41]": {"target": "D(2) dopamine receptor (Homo sapiens) (UniProt P14416)", "conditions": "Compound concentration 10.0 uM"}, "[42]": {"target": "Sodium-dependent serotonin transporter (Homo sapiens) (UniProt P31645)", "conditions": "Compound concentration 10.0 uM"}, "[43]": {"target": "Sodium-dependent noradrenaline transporter (Homo sapiens) (UniProt P23975)", "conditions": "Compound concentration 10.0 uM"}, "[44]": {"target": "Histamine H4 receptor (Homo sapiens) (UniProt Q9H3N8)", "conditions": "Compound concentration 10.0 uM"}, "Rattus norvegicus": {"species_on_record": "Rattus norvegicus", "conditions": "Compound concentration 10.0 uM"}}}
{"smiles": "CNC(=O)c1cc(C(=O)N[C@H]2[C@@H]3COC[C@@H]32)cc2c1O[C@@H](CF)[C@@H]2c1ccccc1", "values": [{"measurement": "inhibition", "setting": "[1]", "value": 14.9, "unit": "%"}, {"measurement": "inhibition", "setting": "[2]", "value": -8.28, "unit": "%"}, {"measurement": "inhibition", "setting": "[3]", "value": -8.07, "unit": "%"}, {"measurement": "inhibition", "setting": "[4]", "value": 0.03, "unit": "%"}, {"measurement": "inhibition", "setting": "[5]", "value": 11.6, "unit": "%"}, {"measurement": "inhibition", "setting": "[6]", "value": 10.6, "unit": "%"}, {"measurement": "inhibition", "setting": "[7]", "value": -1.21, "unit": "%"}, {"measurement": "inhibition", "setting": "[8]", "value": 1.31, "unit": "%"}, {"measurement": "inhibition", "setting": "[9]", "value": -6.73, "unit": "%"}, {"measurement": "inhibition", "setting": "[10]", "value": 4.11, "unit": "%"}, {"measurement": "inhibition", "setting": "[11]", "value": 17.7, "unit": "%"}, {"measurement": "inhibition", "setting": "[12]", "value": -7.16, "unit": "%"}, {"measurement": "inhibition", "setting": "[13]", "value": 4.77, "unit": "%"}, {"measurement": "inhibition", "setting": "[14]", "value": 17.1, "unit": "%"}, {"measurement": "inhibition", "setting": "[15]", "value": 41.1, "unit": "%"}, {"measurement": "inhibition", "setting": "[16]", "value": 14.5, "unit": "%"}, {"measurement": "inhibition", "setting": "[17]", "value": -1.58, "unit": "%"}, {"measurement": "inhibition", "setting": "[18]", "value": 4.49, "unit": "%"}, {"measurement": "inhibition", "setting": "[19]", "value": -5.65, "unit": "%"}, {"measurement": "inhibition", "setting": "[20]", "value": 7.39, "unit": "%"}, {"measurement": "inhibition", "setting": "[21]", "value": -0.98, "unit": "%"}, {"measurement": "inhibition", "setting": "[22]", "value": 13.8, "unit": "%"}, {"measurement": "inhibition", "setting": "[23]", "value": 22.8, "unit": "%"}, {"measurement": "inhibition", "setting": "[24]", "value": 7.66, "unit": "%"}, {"measurement": "inhibition", "setting": "[25]", "value": 6.93, "unit": "%"}, {"measurement": "inhibition", "setting": "[26]", "value": 9.35, "unit": "%"}, {"measurement": "inhibition", "setting": "[27]", "value": 12.1, "unit": "%"}, {"measurement": "inhibition", "setting": "[28]", "value": -7.3, "unit": "%"}, {"measurement": "inhibition", "setting": "[29]", "value": 12.6, "unit": "%"}, {"measurement": "inhibition", "setting": "[30]", "value": 6.19, "unit": "%"}, {"measurement": "inhibition", "setting": "[31]", "value": 18, "unit": "%"}, {"measurement": "inhibition", "setting": "[32]", "value": 31, "unit": "%"}, {"measurement": "inhibition", "setting": "[33]", "value": 74.2, "unit": "%"}, {"measurement": "inhibition", "setting": "[34]", "value": -7.87, "unit": "%"}, {"measurement": "inhibition", "setting": "[35]", "value": 35.6, "unit": "%"}, {"measurement": "inhibition", "setting": "[36]", "value": 10.2, "unit": "%"}]}
{"smiles": "CNC(=O)c1cc(C(=O)N[C@H]2[C@@H]3COC[C@@H]32)cc2c1O[C@H](CF)[C@H]2c1ccccc1", "note": "[GSK973]", "values": [{"measurement": "pIC50", "setting": "[37]", "value": 7.4}, {"measurement": "inhibition", "setting": "[1]", "value": 8.96, "unit": "%"}, {"measurement": "inhibition", "setting": "[2]", "value": -0.1, "unit": "%"}, {"measurement": "inhibition", "setting": "[3]", "value": -5.14, "unit": "%"}, {"measurement": "inhibition", "setting": "[5]", "value": 13.4, "unit": "%"}, {"measurement": "inhibition", "setting": "[38]", "value": 28.2, "unit": "%"}, {"measurement": "inhibition", "setting": "[39]", "value": 22.2, "unit": "%"}, {"measurement": "inhibition", "setting": "[6]", "value": 20.2, "unit": "%"}, {"measurement": "inhibition", "setting": "[40]", "value": 12.5, "unit": "%"}, {"measurement": "inhibition", "setting": "[7]", "value": 16.8, "unit": "%"}, {"measurement": "inhibition", "setting": "[8]", "value": 13.6, "unit": "%"}, {"measurement": "inhibition", "setting": "[9]", "value": 9.7, "unit": "%"}, {"measurement": "inhibition", "setting": "[41]", "value": 60.9, "unit": "%"}, {"measurement": "inhibition", "setting": "[10]", "value": 81.8, "unit": "%"}, {"measurement": "inhibition", "setting": "[11]", "value": 81.6, "unit": "%"}, {"measurement": "inhibition", "setting": "[12]", "value": 28.3, "unit": "%"}, {"measurement": "inhibition", "setting": "[42]", "value": 27.2, "unit": "%"}, {"measurement": "inhibition", "setting": "[43]", "value": 0.32, "unit": "%"}, {"measurement": "inhibition", "setting": "[13]", "value": -5.14, "unit": "%"}, {"measurement": "inhibition", "setting": "[14]", "value": 2.46, "unit": "%"}, {"measurement": "inhibition", "setting": "[15]", "value": 1.22, "unit": "%"}, {"measurement": "inhibition", "setting": "[16]", "value": 4.07, "unit": "%"}, {"measurement": "inhibition", "setting": "[18]", "value": -3.94, "unit": "%"}, {"measurement": "inhibition", "setting": "[19]", "value": -9.57, "unit": "%"}, {"measurement": "inhibition", "setting": "[44]", "value": 9.36, "unit": "%"}, {"measurement": "inhibition", "setting": "[20]", "value": -4.55, "unit": "%"}, {"measurement": "inhibition", "setting": "[21]", "value": 1.49, "unit": "%"}, {"measurement": "inhibition", "setting": "[22]", "value": 1.67, "unit": "%"}, {"measurement": "inhibition", "setting": "[23]", "value": 12.5, "unit": "%"}, {"measurement": "inhibition", "setting": "[24]", "value": 8.26, "unit": "%"}, {"measurement": "inhibition", "setting": "[25]", "value": 6.03, "unit": "%"}, {"measurement": "inhibition", "setting": "[26]", "value": 17.9, "unit": "%"}, {"measurement": "inhibition", "setting": "[28]", "value": -5.52, "unit": "%"}, {"measurement": "inhibition", "setting": "[29]", "value": 11.2, "unit": "%"}, {"measurement": "inhibition", "setting": "[30]", "value": 2.78, "unit": "%"}, {"measurement": "inhibition", "setting": "[31]", "value": 2.23, "unit": "%"}, {"measurement": "inhibition", "setting": "[32]", "value": 15.5, "unit": "%"}, {"measurement": "inhibition", "setting": "[33]", "value": 30.2, "unit": "%"}, {"measurement": "inhibition", "setting": "Rattus norvegicus", "value": 9.06, "unit": "%"}, {"measurement": "inhibition", "setting": "[34]", "value": 3.51, "unit": "%"}, {"measurement": "inhibition", "setting": "[35]", "value": 14.3, "unit": "%"}, {"measurement": "inhibition", "setting": "[36]", "value": 28.4, "unit": "%"}]}
